Key:
[1] = test system: SMN2 minigene (full length SMN2 minigene mRNA containing SMN2 exon 7); test: SMN2 minigene mRNA splicing RT-qPCR assay in cultured cells; format: cell-based, human; settings: Homo sapiens, HEK293-H; HEK293H cells stably transfected with SMN2-A minigene; 24 hours; 7-point concentration curve; 1.5-fold relative to vehicle-treated cells; read-out: EC1.5x for production of full length SMN2 mRNA
Procedure, shortened: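 Lysates → one-step RT-qPCR, minigene-specific primers (0.4 μM final) + GAPDH multiplex, 40 cycles. FL/GAPDH vs DMSO; EC1.5x, star-binned.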

Smn protein = Smn protein assay in cultured cells (SMN HTRF); format: cell-based, human; settings: 48 hours; for maximum fold (Fold) increase of Smn protein: SMA patient fibroblast cells, 7-point concentration data, fold increase relative to vehicle control (SMN HTRF); for EC1.5x (concentration giving 1.5-fold Smn protein increase): SMA Type 1 patient fibroblast cells (GM03813), 7-point concentration curve, SMN HTRF, concentration producing 1.5 times Smn protein vs DMSO vehicle control, read-out: EC1.5x for Smn protein expression
Procedure, shortened: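 Smn in SMA fibroblast lysates, measured by anti-SMN HTRF after 48 h compound exposure; EC1.5x from fold change over vehicle.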

Compound | melting point [°C] | EC (1.5-fold) [1] [µM] | maximum fold (Fold) increase of Smn protein (Smn protein) | EC1.5x (concentration giving 1.5-fold Smn protein increase) (Smn protein) [nM]
C[C@@H]1CN(c2ccc3cc(-c4cc5ccccn5n4)c(=O)oc3c2)C[C@H](C)N1 [Compound 189, 7-[(3R,5S)-3,5-dimethylpiperazin-1-yl]-3-(pyrazolo[1,5-a]pyridin-2-yl)-2H-chromen-2-one] | 188 to 190 | 1 to 3 | ** (fold increase between >1.2 and ≤1.35) | –
CN1CCN(c2ccc3cc(-c4cccc(OC5CCC5)n4)c(=O)oc3c2)CC1 [Compound 415, 3-[6-(cyclobutyloxy)pyridin-2-yl]-7-(4-methylpiperazin-1-yl)-2H-chromen-2-one] | 158 to 160 | 3 to 30 | * (maximum fold increase of ≤1.2) | –
Cc1cnc2nc(-c3cc4ccc(N5CCN[C@@H](C)C5)cc4oc3=O)cn2c1 [Compound 462, 3-(6-methylimidazo[1,2-a]pyrimidin-2-yl)-7-[(3S)-3-methylpiperazin-1-yl]-2H-chromen-2-one] | 254 to 256 | < 0.1 | *** (fold increase between >1.35 and ≤1.5) | 1000 to 3000
Cc1cc(F)c2nc(-c3cc4ccc(N5CCN(C)CC5)cc4oc3=O)cn2c1 [Compound 353, 3-(8-fluoro-6-methylimidazo[1,2-a]pyridin-2-yl)-7-(4-methylpiperazin-1-yl)-2H-chromen-2-one] | 252 to 262 | < 0.1 | **** (fold increase between >1.5 and ≤1.65) | 1000 to 3000
O=c1oc2cc(N3CCNCC3)ccc2cc1-c1ccc(F)c(Cl)c1 [Compound 484, 3-(3-chloro-4-fluorophenyl)-7-(piperazin-1-yl)-2H-chromen-2-one] | 186 to 188 | 0.3 to 1 | * (maximum fold increase of ≤1.2) | –
CCN1CCN(c2ccc3cc(-c4cn5cc(C)nc(C)c5n4)c(=O)oc3c2)CC1 [Compound 621, 3-(6,8-dimethylimidazo[1,2-a]pyrazin-2-yl)-7-(4-ethylpiperazin-1-yl)-2H-chromen-2-one] | 215 to 217 | < 0.1 | ***** (fold increase >1.65) | < 300
CCN1C[C@@H]2CN(c3ccc4cc(-c5cn6cc(C)nc(C)c6n5)c(=O)oc4c3)C[C@@H]2C1 [Compound 747, 3-(6,8-dimethylimidazo[1,2-a]pyrazin-2-yl)-7-[(3aR,6aS)-5-ethylhexahydropyrrolo[3,4-c]pyrrol-2(1H)-yl]-2H-chromen-2-one] | 231 to 237 | < 0.1 | ***** (fold increase >1.65) | < 300
Cc1cn2cc(-c3cc4ccc(N5C[C@H]6CCCN[C@H]6C5)cc4oc3=O)nc2cn1 [Compound 719, 3-(6-methylimidazo[1,2-a]pyrazin-2-yl)-7-[(4aR,7aR)-octahydro-6H-pyrrolo[3,4-b]pyridin-6-yl]-2H-chromen-2-one] | 282 to 291 | < 0.1 | ** (fold increase between >1.2 and ≤1.35) | –
C[C@@H]1CN(c2ccc3cc(-c4cn5cc(Cl)ccc5n4)c(=O)oc3c2)C[C@H](C)N1 [Compound 105, 3-(6-chloroimidazo[1,2-a]pyridin-2-yl)-7-[(3R,5S)-3,5-dimethylpiperazin-1-yl]-2H-chromen-2-one] | 220 to 225 | 1 to 3 | **** (fold increase between >1.5 and ≤1.65) | 300 to 1000
Cc1cn2cc(-c3cc4ccc(N5CCN6CCCCC6C5)cc4oc3=O)nc2c(C)n1 (stereo not shown) [Compound 633, 3-(6,8-dimethylimidazo[1,2-a]pyrazin-2-yl)-7-(octahydro-2H-pyrido[1,2-a]pyrazin-2-yl)-2H-chromen-2-one] | 225 to 227 | < 0.1 | *** (fold increase between >1.35 and ≤1.5) | –
COc1cccc(-c2cc3c(F)cc(N4CCNCC4)cc3oc2=O)n1 [Compound 468, 5-fluoro-3-(6-methoxypyridin-2-yl)-7-(piperazin-1-yl)-2H-chromen-2-one] | 231 to 236 | 0.3 to 1 | ** (fold increase between >1.2 and ≤1.35) | –
O=c1oc2cc(N3CCCNCC3)ccc2cc1-c1cn2ccncc2n1 [Compound 454, 7-(1,4-diazepan-1-yl)-3-(imidazo[1,2-a]pyrazin-2-yl)-2H-chromen-2-one] | 247 to 249 | < 0.1 | *** (fold increase between >1.35 and ≤1.5) | 3000 to 10000

Second part, led by results:

melting point [°C] | Compound | EC (1.5-fold) [1] [µM] | maximum fold (Fold) increase of Smn protein (Smn protein) | EC1.5x (concentration giving 1.5-fold Smn protein increase) (Smn protein) [nM]
186 to 191 | Cc1cc2oc(-c3cc4ccc(N5CCN(C(C)C)CC5)cc4oc3=O)cc2c(C)n1 [Compound 840, 3-(4,6-dimethylfuro[3,2-c]pyridin-2-yl)-7-[4-(propan-2-yl)piperazin-1-yl]-2H-chromen-2-one] | 0.3 to 1 | * (maximum fold increase of ≤1.2) | –
229 to 231 | CN1CCN(c2ccc3cc(-c4nc5c(Cl)cccc5o4)c(=O)oc3c2)CC1 [Cpd 68, 3-(4-chloro-1,3-benzoxazol-2-yl)-7-(4-methylpiperazin-1-yl)-2H-chromen-2-one] | 1 to 3 | ** (fold increase between >1.2 and ≤1.35) | –
> 300 | Cc1cn2cc(-c3cc4ccc(N5CCCNCC5)cc4oc3=O)nc2c(C(F)(F)F)n1 [Cpd 607, 7-(1,4-diazepan-1-yl)-3-[6-methyl-8-(trifluoromethyl)imidazo[1,2-a]pyrazin-2-yl]-2H-chromen-2-one] | < 0.1 | *** (fold increase between >1.35 and ≤1.5) | 300 to 1000
177 to 180 | Cc1cn2cc(-c3cc4ccc(CCCNCc5ccccn5)cc4oc3=O)nc2c(C)n1 [Compound 935, 3-(6,8-dimethylimidazo[1,2-a]pyrazin-2-yl)-7-{3-[(pyridin-2-ylmethyl)amino]propyl}-2H-chromen-2-one] | 0.1 to 0.3 | **** (fold increase between >1.5 and ≤1.65) | 300 to 1000
259 to 262 | CCCN1CCN(c2ccc3cc(-c4cc5cc(C)nc(C)c5o4)c(=O)oc3c2)CC1 [Compound 815, 3-(5,7-dimethylfuro[2,3-c]pyridin-2-yl)-7-(4-propylpiperazin-1-yl)-2H-chromen-2-one] | < 0.1 | **** (fold increase between >1.5 and ≤1.65) | < 300
130 to 133 | CC(c1ccc2cc(-c3nc4ccccc4s3)c(=O)oc2c1)N(C)C (stereo not shown) [Cpd 143, 3-(1,3-benzothiazol-2-yl)-7-[1-(dimethylamino)ethyl]-2H-chromen-2-one] | 1 to 3 | *** (fold increase between >1.35 and ≤1.5) | –
184 to 188 | Cc1cn2cc(-c3cc4ccc(CCN(CCO)CCO)cc4oc3=O)nc2c(C)n1 [Compound 875, 7-{2-[bis(2-hydroxyethyl)amino]ethyl}-3-(6,8-dimethylimidazo[1,2-a]pyrazin-2-yl)-2H-chromen-2-one] | < 0.1 | **** (fold increase between >1.5 and ≤1.65) | < 300
210 to 215 | CCc1nc(C)cn2cc(-c3cc4ccc(N5CCN(C)CC5)cc4oc3=O)nc12 [Compound 830, 3-(8-ethyl-6-methylimidazo[1,2-a]pyrazin-2-yl)-7-(4-methylpiperazin-1-yl)-2H-chromen-2-one] | < 0.1 | ***** (fold increase >1.65) | < 300
260 to 264 | C[C@@H]1CN(c2ccc3cc(-c4cn(-c5ccccc5)cn4)c(=O)oc3c2)C[C@H](C)N1 [Cpd 452, 7-[(3R,5S)-3,5-dimethylpiperazin-1-yl]-3-(1-phenyl-1H-imidazol-4-yl)-2H-chromen-2-one] | 3 to 30 | * (maximum fold increase of ≤1.2) | –
196 to 198 | Cc1cn2cc(-c3cc4ccc(N5CC[C@H](CN)C5)cc4oc3=O)nc2c(C)n1 [Compound 950, 7-[(3R)-3-(aminomethyl)pyrrolidin-1-yl]-3-(6,8-dimethylimidazo[1,2-a]pyrazin-2-yl)-2H-chromen-2-one] | 0.1 to 0.3 | *** (fold increase between >1.35 and ≤1.5) | 1000 to 3000
192 to 196 | Cc1cn2cc(-c3cc4ccc(CN(C)C)cc4oc3=O)nc2c(C)n1 [Cpd 846, 7-[(dimethylamino)methyl]-3-(6,8-dimethylimidazo[1,2-a]pyrazin-2-yl)-2H-chromen-2-one] | 0.1 to 0.3 | ***** (fold increase >1.65) | 300 to 1000

— USRE47689E1, “Compounds for treating spinal muscular atrophy” (PTC Therapeutics, Inc., priority 2011, dated 2019)
